From US5849587A, “Method of inhibiting viral replication in eukaryotic cells and of inducing apoptosis of virally-infected cells” (Cornell Research Foundation, Inc., priority 1995, dated 1998)
Entries after “also recorded” stand apart in the source; their conditions may differ.

What was measured:
Deoxyhypusyl hydroxylase = biological target: T1, Deoxyhypusyl hydroxylase (Homo sapiens, UniProt Q9BU89); assay: Cellular deoxyhypusyl hydroxylase (hypusine formation) inhibition, human B-cells and human smooth muscle cells; type: cell-based; conditions: for Deoxyhypusyl hydroxylase ID50 (cellular): concentration for half-maximal inhibition
T1 construct: endogenous in cells
T1 sequence (Q9BU89 1-302): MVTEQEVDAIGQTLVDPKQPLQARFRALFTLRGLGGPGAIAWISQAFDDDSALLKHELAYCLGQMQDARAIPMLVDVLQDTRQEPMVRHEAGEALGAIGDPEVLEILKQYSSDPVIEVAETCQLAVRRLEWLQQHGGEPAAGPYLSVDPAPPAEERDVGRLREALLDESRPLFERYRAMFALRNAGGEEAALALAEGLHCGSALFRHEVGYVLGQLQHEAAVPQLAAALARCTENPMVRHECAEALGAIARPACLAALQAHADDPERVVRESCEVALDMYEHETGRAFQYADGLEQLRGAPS
Experimental: The cell-free enzyme assay was performed to test a pilot peptidomimetic which can be equipped with hydroxypyridone warheads. The cell culture studies were performed to establish the inherent inhibitory potency of such hydroxypyridones.
DOHH Assay. The intracellular conversion of peptide-bound deoxyhypusine to peptidyl hypusine was determined after preincubation of human T lymphocyte-derived cells (i.e. ACH-2) [Clouse et al., J. Immunol. 142, 431-438 (1989), which is hereby incorporated by reference] with the hypusine inhibitors mimosine and HK-1 for 60 minutes, followed by labeling for 21 hours with ^3 H-spermidine (3.75 μCi/ml) in wells containing 3×10^6 cells suspended in 8 ml of serum-supplemented and antibiotic-containing RPMI 1640 medium. Cells were then split into two groups, one of them being harvested immediately to assess degree of DOHH inhibition, and the other harvested after transfer of the cells into inhibitor-free medium for 2 hours to measure resumption of DOHH activity. Harvesting consisted in precipitation of washed cells with 10% TCA containing 1 mM each of putrescine, spermidine, and spermine. Cellular proteins from each sample were then hydrolyzed in 6N HCl at 110° C. for 16 hours. The hydrolysate was analyzed for labeled amino acids on an amino acid analyzer by published methods [Park et al., J. Biol. Chem., 257, 7217-7222 (1982), which is hereby incorporated by reference]. The retention times of hypusine and deoxyhypusine were determined from standards. Similar studies were performed in human B-cells and human smooth muscle cells.
The concentration required for half-maximal inhibition (ID50) of the cellular enzyme activity is identified for each compound.

[1] = test system: HIV-1 infected ACH-2 cells; assay: Flow cytometry of genomic DNA 3'-ends (apoptosis), HIV-1 infected cells; type: cell-based, human; conditions: for fragmentation of genomic DNA / number of DNA 3'-ends, ACH-2: FIG. 13
Experimental: FIGS. 13A-F show the flowcytometrically determined distribution of the number of fluorescently labeled 3'-ends in the genomic DNA of HIV-1 producing ACH-2 cells ("ACH-2") and their uninfected parent cell line CEM ("CEM"), both receiving no treatment ("NT") or treatment for 18 hours with either 200 μM mimosine ("MIM") or 200 μM HK-1 ("HK1"). […] This is the hallmark of irreversible auto-destruction of a cell's genetic library.
FIGS. 14A-H show the flowcytometrically determined distribution of the number of fluorescently labeled 3'-ends in the genomic DNA of HIV-1 producing ACH-2 cells ("ACH-2") and of their uninfected parent cell line CEM ("CEM"), both receiving no treatment ("NT") or treatment for 18 hours with 200 μM mimosine ("MIM"), followed by inhibitor withdrawal and reincubation in fresh medium for 2 hours.
ACH-2 cells were incubated with hypusine inhibitors (mimosine, HK-1) and induced with PMA as outlined in Example II A, except that the duration of exposure to inhibitor was extended to 18-21 hours and that cells were labeled as detailed in Example I B. Half of the cells were then harvested and processed for detection of apoptosis, while the other half was washed free of inhibitors and re-incubated in fresh medium for 2-4 hours, followed by harvesting and processing for detection of […] apoptosis. Using the same protocol, cultures of the parent CEM cell line were incubated in parallel. For assessment of apoptosis, cell viability was measured by exclusion of the dye trypan blue, by retention of the ^3 H-spermidine-derived intracellular radioactivity incorporated into the obligatory intracellular protein eIF-5A, and by direct fluorescence detection of the intemucleosomal degradation of genomic DNA. Such irreversible genome degradation signals the activation of pre-programmed suicide mechanisms within any cell, which is the hallmark of apoptosis, and inescapably results in cell death [Compton, Cancer Metast. 11, 105-119 (1992), which is hereby incorporated by reference]. For the latter method, a commercially available kit was used (Oncor, Gaithersburg, Md.). Flow cytometric analysis of apoptotic cells was performed in accord with standard procedures.

Compound | Deoxyhypusyl hydroxylase ID50 (cellular) (Deoxyhypusyl hydroxylase) | fragmentation of genomic DNA / number of DNA 3'-ends, ACH-2 ([1]; 200 μM, 18 hours) | inhibition of deoxyhypusyl hydroxylase activity, i.e. hypusine formation (Deoxyhypusyl hydroxylase) | DNA fragmentation after withdrawal, ACH-2 ([1]; 200 μM 18 hours, then 2 hours after withdrawal, FIG. 14) | second population (higher amount of 3'-ends) position, ACH-2 ([1]; 200 μM, 18 hours, FIG. 14) | average fluorescence peak position, ACH-2 ([1]; 200 μM, 18 hours, FIG. 14, control around channel 100)
Cc1c(O)c(=O)ccn1C [HK-1, 1,2-dimethyl-3-hydroxypyrid-4-one] | 90 | triggered fragmentation of the genomic DNA; also recorded: increase of the number of 3'-ends in their DNA |  |  |  | 
N[C@@H](Cn1ccc(=O)c(O)c1)C(=O)O [L-Mimosine] | 65 | triggered fragmentation of the genomic DNA; also recorded: increase of the number of 3'-ends in their DNA | efficiently inhibit deoxyhypusyl hydroxylase activity | this population did not decrease, but rather became the predominant one; also recorded: Within the 2 hours of release, this shift increased markedly | ~210 channel | 140 channel
